ChEMBL document CHEMBL4507291 (2021)

How the values were obtained:
[1] = biological target: Tyrosine-protein kinase receptor UFO (Homo sapiens) (UniProt P30530)
[2] = biological target: Calcium/calmodulin-dependent protein kinase type IV (Homo sapiens) (UniProt Q16566)
[3] = test system: Epidermal growth factor receptor (Homo sapiens), P00533 [UNDEFINED MUTATION]
[4] = biological target: Ephrin type-B receptor 6 (Homo sapiens) (UniProt O15197)
[5] = biological target: Receptor tyrosine-protein kinase erbB-4 (Homo sapiens) (UniProt Q15303)
[6] = biological target: Mitogen-activated protein kinase 1 (Homo sapiens) (UniProt P28482)
[7] = biological target: Fibroblast growth factor receptor 2 (Homo sapiens) (UniProt P21802)
[8] = biological target: Homeodomain-interacting protein kinase 2 (Homo sapiens) (UniProt Q9H2X6)
[9] = biological target: LIM domain kinase 1 (Homo sapiens) (UniProt P53667)
[10] = biological target: T1, Mitogen-activated protein kinase kinase kinase 3 (Homo sapiens) (UniProt Q99759)
T1 sequence (whole entry): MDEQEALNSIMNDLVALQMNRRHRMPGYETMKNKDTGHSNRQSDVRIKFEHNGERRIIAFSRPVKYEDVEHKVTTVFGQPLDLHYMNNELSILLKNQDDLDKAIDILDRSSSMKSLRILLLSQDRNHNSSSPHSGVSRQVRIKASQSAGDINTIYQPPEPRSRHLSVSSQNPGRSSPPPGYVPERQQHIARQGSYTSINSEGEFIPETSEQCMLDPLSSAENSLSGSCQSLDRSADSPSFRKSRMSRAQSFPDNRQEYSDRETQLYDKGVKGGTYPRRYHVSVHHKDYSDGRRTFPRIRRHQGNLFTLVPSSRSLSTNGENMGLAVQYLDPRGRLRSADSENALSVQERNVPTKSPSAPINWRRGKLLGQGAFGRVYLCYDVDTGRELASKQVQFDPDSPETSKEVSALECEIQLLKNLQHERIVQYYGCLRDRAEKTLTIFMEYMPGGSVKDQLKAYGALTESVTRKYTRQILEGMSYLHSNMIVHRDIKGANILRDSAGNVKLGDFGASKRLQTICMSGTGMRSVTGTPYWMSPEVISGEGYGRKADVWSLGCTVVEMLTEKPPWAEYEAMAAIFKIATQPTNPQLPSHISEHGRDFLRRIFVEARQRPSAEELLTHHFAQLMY

[11] = biological target: Macrophage-stimulating protein receptor (Homo sapiens) (UniProt Q04912)
[12] = biological target: Cyclin-dependent kinase 18 (Homo sapiens) (UniProt Q07002)
[13] = biological target: Protein kinase C delta type (Homo sapiens) (UniProt Q05655)
[14] = biological target: Protein kinase C eta type (Homo sapiens) (UniProt P24723)
[15] = test system: Proto-oncogene tyrosine-protein kinase receptor Ret (Homo sapiens), P07949 [M918T]
[16] = biological target: NUAK family SNF1-like kinase 2 (Homo sapiens) (UniProt Q9H093)
[17] = biological target: T2, Mitogen-activated protein kinase kinase kinase 7 (Homo sapiens) (UniProt O43318)
T2 sequence (whole entry): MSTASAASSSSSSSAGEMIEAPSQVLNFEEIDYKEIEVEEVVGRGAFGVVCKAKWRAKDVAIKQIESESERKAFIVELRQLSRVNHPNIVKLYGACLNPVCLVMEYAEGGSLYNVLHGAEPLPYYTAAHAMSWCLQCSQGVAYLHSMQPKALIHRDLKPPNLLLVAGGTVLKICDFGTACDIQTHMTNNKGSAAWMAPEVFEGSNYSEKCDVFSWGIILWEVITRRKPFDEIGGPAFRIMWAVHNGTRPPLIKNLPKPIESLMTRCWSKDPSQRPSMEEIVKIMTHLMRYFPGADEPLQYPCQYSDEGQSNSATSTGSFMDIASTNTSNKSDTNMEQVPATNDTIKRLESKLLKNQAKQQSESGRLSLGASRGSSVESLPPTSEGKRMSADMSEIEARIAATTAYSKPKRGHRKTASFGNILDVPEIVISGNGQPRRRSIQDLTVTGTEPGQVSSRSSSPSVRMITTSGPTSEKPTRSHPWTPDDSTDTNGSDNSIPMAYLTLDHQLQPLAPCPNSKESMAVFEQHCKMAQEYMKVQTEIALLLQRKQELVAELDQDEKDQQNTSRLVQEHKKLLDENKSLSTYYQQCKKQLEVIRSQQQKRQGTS

[18] = Compound concentration 1000.0 nM
[19] = Compound concentration 100.0 nM

Measured: residual activity

Chain of LIM domain kinase 1 (Homo sapiens) (P53667 whole entry, looked up, the tested form may be a part): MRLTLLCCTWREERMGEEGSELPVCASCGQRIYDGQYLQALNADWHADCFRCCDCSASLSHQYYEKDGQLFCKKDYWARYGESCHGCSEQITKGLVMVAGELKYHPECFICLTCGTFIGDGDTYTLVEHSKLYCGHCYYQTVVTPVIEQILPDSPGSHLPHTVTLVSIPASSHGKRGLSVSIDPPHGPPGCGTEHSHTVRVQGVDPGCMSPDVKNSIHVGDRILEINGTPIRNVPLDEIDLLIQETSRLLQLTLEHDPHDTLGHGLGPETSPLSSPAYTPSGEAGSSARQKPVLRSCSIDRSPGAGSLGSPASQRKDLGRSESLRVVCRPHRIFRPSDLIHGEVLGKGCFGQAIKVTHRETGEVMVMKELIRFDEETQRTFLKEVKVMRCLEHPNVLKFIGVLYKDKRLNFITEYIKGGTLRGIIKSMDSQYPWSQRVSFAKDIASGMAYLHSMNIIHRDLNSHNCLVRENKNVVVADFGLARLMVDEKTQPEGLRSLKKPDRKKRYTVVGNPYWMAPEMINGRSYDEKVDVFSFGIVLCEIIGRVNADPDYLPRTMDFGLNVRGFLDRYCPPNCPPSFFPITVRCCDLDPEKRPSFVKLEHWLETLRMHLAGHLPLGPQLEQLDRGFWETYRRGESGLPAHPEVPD
Chain of Proto-oncogene tyrosine-protein kinase receptor Ret (Homo sapiens), P07949 [M918T] (P07949 whole entry M918T): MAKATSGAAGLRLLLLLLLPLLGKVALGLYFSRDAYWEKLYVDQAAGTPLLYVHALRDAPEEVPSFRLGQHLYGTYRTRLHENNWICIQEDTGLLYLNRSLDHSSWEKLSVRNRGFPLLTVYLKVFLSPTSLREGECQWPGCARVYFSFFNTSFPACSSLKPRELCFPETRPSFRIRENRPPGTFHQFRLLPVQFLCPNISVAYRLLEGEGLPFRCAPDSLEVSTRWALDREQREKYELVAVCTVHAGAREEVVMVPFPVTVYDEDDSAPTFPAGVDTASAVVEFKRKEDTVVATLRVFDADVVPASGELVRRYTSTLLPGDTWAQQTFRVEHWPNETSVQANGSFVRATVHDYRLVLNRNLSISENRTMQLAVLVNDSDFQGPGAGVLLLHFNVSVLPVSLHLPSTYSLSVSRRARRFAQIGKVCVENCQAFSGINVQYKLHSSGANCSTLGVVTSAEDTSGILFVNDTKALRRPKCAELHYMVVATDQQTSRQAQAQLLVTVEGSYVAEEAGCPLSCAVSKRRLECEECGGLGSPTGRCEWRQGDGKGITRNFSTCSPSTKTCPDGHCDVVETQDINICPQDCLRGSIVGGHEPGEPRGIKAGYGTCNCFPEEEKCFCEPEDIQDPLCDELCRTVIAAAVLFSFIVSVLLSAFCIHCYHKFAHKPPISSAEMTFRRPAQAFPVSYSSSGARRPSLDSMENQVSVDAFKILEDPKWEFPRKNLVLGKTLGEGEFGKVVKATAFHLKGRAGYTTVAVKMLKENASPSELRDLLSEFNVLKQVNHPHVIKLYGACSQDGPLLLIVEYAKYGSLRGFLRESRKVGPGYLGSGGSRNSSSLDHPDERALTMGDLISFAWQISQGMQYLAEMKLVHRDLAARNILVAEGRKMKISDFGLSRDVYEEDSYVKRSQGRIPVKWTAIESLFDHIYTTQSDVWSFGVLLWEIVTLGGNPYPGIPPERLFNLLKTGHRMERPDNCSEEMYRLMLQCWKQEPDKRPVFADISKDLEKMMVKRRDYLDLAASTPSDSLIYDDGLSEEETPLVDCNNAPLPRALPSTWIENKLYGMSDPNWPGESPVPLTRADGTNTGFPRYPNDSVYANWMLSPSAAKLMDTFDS
Chain of Receptor tyrosine-protein kinase erbB-4 (Homo sapiens) (Q15303 whole entry): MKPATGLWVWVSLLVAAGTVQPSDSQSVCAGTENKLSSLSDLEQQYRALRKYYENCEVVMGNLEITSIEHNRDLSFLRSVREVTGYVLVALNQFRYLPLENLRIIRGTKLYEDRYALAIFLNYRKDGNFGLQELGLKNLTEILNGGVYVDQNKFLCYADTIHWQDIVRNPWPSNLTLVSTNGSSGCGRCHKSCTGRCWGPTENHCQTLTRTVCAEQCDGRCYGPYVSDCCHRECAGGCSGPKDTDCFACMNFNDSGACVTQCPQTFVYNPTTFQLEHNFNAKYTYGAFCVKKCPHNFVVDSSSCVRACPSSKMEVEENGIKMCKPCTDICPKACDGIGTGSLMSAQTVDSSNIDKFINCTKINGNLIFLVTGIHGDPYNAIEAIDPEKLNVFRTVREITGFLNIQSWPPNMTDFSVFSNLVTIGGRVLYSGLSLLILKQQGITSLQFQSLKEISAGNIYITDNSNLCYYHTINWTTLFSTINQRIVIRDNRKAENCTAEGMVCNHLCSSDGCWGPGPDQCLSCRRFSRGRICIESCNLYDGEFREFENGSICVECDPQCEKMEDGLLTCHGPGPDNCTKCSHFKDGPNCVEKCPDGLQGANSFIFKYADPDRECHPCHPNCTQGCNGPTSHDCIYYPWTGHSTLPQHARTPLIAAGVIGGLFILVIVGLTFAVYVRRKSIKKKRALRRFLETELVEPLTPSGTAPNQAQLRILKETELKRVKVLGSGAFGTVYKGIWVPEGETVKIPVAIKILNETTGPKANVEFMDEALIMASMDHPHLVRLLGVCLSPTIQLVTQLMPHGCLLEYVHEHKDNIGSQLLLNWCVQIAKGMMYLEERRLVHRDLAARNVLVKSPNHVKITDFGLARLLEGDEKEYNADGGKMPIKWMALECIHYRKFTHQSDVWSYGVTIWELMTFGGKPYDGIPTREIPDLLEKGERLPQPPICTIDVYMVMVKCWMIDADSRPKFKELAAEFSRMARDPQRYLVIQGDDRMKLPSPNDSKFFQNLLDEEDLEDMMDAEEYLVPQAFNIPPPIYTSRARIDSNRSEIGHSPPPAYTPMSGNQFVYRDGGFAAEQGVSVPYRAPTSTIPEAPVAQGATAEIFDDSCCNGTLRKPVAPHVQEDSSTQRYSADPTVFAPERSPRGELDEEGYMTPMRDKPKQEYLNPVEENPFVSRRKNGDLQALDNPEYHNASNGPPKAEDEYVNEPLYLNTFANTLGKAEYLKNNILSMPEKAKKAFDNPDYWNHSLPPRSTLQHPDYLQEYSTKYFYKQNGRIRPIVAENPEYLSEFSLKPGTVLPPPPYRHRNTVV
Chain of Cyclin-dependent kinase 18 (Homo sapiens) (Q07002 whole entry): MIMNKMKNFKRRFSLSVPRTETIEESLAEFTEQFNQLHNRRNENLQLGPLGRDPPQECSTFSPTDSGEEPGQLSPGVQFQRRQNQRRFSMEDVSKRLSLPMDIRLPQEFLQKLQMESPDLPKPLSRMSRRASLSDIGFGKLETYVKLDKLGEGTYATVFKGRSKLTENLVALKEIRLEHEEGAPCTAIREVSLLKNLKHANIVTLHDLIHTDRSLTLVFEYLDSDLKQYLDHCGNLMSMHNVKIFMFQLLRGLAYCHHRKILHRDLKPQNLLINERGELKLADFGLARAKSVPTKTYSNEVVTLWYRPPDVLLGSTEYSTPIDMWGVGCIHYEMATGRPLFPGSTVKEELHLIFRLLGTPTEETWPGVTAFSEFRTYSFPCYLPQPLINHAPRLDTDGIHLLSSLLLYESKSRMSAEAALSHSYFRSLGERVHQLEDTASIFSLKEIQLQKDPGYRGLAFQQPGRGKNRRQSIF
Chain of Protein kinase C delta type (Homo sapiens) (Q05655 whole entry, looked up): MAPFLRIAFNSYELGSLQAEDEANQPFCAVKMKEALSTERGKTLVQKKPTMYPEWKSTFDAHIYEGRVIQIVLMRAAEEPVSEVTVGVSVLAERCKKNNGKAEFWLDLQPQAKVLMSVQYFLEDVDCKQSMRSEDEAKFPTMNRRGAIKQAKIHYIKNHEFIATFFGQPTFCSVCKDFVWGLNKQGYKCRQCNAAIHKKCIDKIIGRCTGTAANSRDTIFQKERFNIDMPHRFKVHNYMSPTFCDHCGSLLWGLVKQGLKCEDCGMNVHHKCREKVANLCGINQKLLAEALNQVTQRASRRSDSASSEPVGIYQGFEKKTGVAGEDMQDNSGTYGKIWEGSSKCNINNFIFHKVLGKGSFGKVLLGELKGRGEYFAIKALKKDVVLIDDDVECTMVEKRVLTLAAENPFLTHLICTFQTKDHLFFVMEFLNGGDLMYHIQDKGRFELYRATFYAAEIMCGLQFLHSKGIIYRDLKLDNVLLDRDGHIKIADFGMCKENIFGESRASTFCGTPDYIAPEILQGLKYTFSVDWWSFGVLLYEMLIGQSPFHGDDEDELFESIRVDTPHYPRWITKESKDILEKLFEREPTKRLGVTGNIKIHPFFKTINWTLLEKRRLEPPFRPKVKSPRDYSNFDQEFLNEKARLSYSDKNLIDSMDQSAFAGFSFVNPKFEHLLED
Chain of NUAK family SNF1-like kinase 2 (Homo sapiens) (Q9H093 whole entry): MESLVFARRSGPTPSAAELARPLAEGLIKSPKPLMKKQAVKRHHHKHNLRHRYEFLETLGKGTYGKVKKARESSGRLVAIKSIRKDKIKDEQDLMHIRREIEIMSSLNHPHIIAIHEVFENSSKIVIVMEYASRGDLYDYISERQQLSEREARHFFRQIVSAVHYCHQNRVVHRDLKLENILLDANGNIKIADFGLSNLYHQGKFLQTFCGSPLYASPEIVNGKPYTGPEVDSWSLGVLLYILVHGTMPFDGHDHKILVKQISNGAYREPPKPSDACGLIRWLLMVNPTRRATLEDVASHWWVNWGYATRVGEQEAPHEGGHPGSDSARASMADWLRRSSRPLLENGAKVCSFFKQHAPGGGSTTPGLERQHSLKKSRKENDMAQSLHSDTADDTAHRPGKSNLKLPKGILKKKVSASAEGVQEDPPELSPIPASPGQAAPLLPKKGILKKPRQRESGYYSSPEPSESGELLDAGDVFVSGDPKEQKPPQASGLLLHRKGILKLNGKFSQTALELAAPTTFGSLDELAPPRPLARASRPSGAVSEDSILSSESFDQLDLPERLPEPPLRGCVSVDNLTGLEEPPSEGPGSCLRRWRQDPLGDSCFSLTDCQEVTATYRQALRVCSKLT

C[C@@H]1CN(c2cc(-c3nn(C)c4ccc(OC5(C)CC5)cc34)ncn2)C[C@H](C)O1 [MLi-2-NC]
inactive: [1]; [18] 100% | [2]; [18] 67% | [3]; [18] 97% | [4]; [18] 100% | [5]; [18] 96% | [6]; [18] 100% | [7]; [18] 100% | [8]; [18] 74% | [9]; [18] 95% | [10]; [18] 90% | [11]; [18] 100% | [12]; [18] 100% | [13]; [18] 100% | [14]; [18] 100% | [15]; [18] 84% | [16]; [18] 68% | [17]; [18] 89%

C[C@@H]1CN(c2cc(-c3n[nH]c4ccc(OC5(C)CC5)cc34)ncn2)C[C@H](C)O1 [MLi-2]
inactive: [1]; [19] 100% | [2]; [19] 78% | [3]; [19] 73% | [4]; [19] 91% | [5]; [19] 90% | [6]; [19] 98% | [7]; [19] 96% | [8]; [19] 80% | [9]; [19] 86% | [10]; [19] 64% | [11]; [19] 100% | [12]; [19] 100% | [13]; [19] 100% | [14]; [19] 92% | [15]; [19] 97% | [16]; [19] 79% | [17]; [19] 70%
